Results published in ChEMBL document CHEMBL1128925, “Novel inhibitors of cell adhesion molecule expression” (Bioorg Med Chem Lett, 1996).

Key:
HUVEC [1] = assay: Compound was evaluated for inhibition of expression of ELAM-1 in IL-1 beta activated human umbilical vein endothelial cells(HUVECs) by using ELISA; type: functional, cell-based
HUVEC [2] = assay: Compound was evaluated for inhibition of expression of VCAM-1 in IL-1 beta activated human umbilical vein endothelial cells(HUVECs) by using ELISA; type: functional, cell-based
Mus musculus = species: Mus musculus; assay: Compound was evaluated for inhibition of neutrophil recruitment in a mouse skin immune complex model.; type: functional; parameters: concentration or dose not given beside the values
HUVEC [3] = assay: Compound was evaluated for inhibition of expression of VCAM-1 in IL-1 beta activated human umbilical vein endothelial cells(HUVECs) by using ELISA at 30 uM; type: functional
HUVEC [4] = assay: Compound was evaluated for inhibition of expression of ELAM-1 in IL-1 beta activated human umbilical vein endothelial cells(HUVECs) by using ELISA at 30 uM; type: functional

Compound | IC50 (HUVEC [1]) [µM] | IC50 (HUVEC [2]) [µM] | Inhibition (Mus musculus) [%] | inhibition at 30 µM (HUVEC [3]) [%] | inhibition at 30 µM (HUVEC [4]) [%]
COc1c(C)cnc(C[S+]([O-])c2nnc(-c3ccccc3O)o2)c1C (configuration not stated) | 10 | 8 | 20 | – | –
COc1ccnc2c1CCCCC2[S+]([O-])c1nnc(C)o1 (configuration not stated) | – | – | – | 0 | 0
COc1c(C)cnc(C[S+]([O-])c2nnc(-c3cccs3)o2)c1C (configuration not stated) | 5 | 3 | – | – | –
COc1c(C)cnc(C[S+]([O-])c2nnc(-c3ccccc3)o2)c1C (configuration not stated) | 7 | 6 | 25 | – | –
COc1c(C)cnc(C[S+]([O-])c2nnc(-c3ccc(F)cc3)o2)c1C (configuration not stated) | 14 | 11 | – | – | –
CCc1nnc([S+]([O-])Cc2ncc(C)c(OC)c2C)o1 (configuration not stated) | 12 | 10 | – | – | –
CCCCc1nnc([S+]([O-])Cc2ncc(C)c(OC)c2C)o1 (configuration not stated) | – | – | – | 85 | 60
COc1c(C)cnc(C[S+]([O-])c2nnc(C)o2)c1C (configuration not stated) | 10 | 8 | 55 | – | –
Cc1nnc([S+]([O-])Cc2ccccn2)o1 (configuration not stated) | – | – | 40 | 80 | 60
COc1c(C)cnc(C[S+]([O-])c2nnc(-c3cccn3C)o2)c1C (configuration not stated) | 6 | 4 | – | – | –
[O-][S+](Cc1ccccc1)c1nnc(-c2ccccc2O)o1 (configuration not stated) | 8 | 6 | – | – | –
[O-][S+](Cc1ccccc1)c1nnc(-c2cccs2)o1 (configuration not stated) | 7 | 6 | 40 | – | –
COc1c(C)cnc(C[S+]([O-])c2nnc(-c3ccc(C(F)(F)F)cc3)o2)c1C (configuration not stated) | – | – | – | 70 | 50
[O-][S+](Cc1ccccc1)c1nnc(-c2cccnc2)o1 (configuration not stated) | 8 | 6 | 50 | – | –
[O-][S+](Cc1ccccc1)c1nnc(-c2ccccn2)o1 (configuration not stated) | 5 | 4 | 80 | – | –
[O-][S+](Cc1ccccc1)c1nnc(-c2ccncc2)o1 (configuration not stated) | 4 | 3 | 55 | – | –
Cc1nnc([S+]([O-])c2c(C)cccc2C)o1 (configuration not stated) | – | – | – | 0 | 0
CCCc1nnc([S+]([O-])Cc2ncc(C)c(OC)c2C)o1 (configuration not stated) | 10 | 8 | – | – | –
COc1c(C)cnc(C[S+]([O-])c2nnc(-c3cccc(C(F)(F)F)c3)o2)c1C (configuration not stated) | – | – | – | 85 | 70
CCCCCc1nnc([S+]([O-])Cc2ncc(C)c(OC)c2C)o1 (configuration not stated) | – | – | – | 70 | 45
Cc1nnc([S+]([O-])Cc2ccccc2)o1 (configuration not stated) | – | – | – | 35 | 20
COc1c(C)cnc(C[S+]([O-])c2nnc(-c3cccc(F)c3)o2)c1C (configuration not stated) | 15 | 12 | – | – | –
